Experiments:
Conditions in all cases: incubation time: 72 h
MDA-MB-436 = test: drug sensitivity score (DSS), CellTox Green (DSS (AUC-based score)); higher = stronger drug effect (viability inhibition or cytotoxicity); extreme values may be limits of the assay
Outline: (§1)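 The area under the fitted dose-response curve was used to calculate the drug sensitivity score. Cells from breast cancer lines were incubated for 72 h in 384-well plates with compound at 5 concentrations spaced 10-fold over a 10,000-fold range specific to each compound. Plates were read for CellTox Green and then CellTiter-Glo, and normalised to 0.1 % DMSO and a positive kill control.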

MDA-MB-468 = test: as above
Outline: as §1

CAL-85-1 [1] = test: as above
Outline: as §1

MDA-MB-453 = test: as above
Outline: as §1

DU-4475 = test: as above
Outline: as §1

HDQ-P1 = test: as above
Outline: as §1

HCC1937 = test: as above
Outline: as §1

HCC1143 [2] = test: as above
Outline: as §1

BT-549 [3] = test: as above
Outline: as §1

HCC1599 = test: as above
Outline: as §1

CAL-120 = test: as above
Outline: as §1

MCF-10A [4] = test: as above
Outline: as §1

MFM-223 = test: as above
Outline: as §1

MDA-MB-231 [5] = test: as above
Outline: as §1

CAL-51 = test: as above
Outline: as §1

CAL-148 [6] = test: as above
Outline: as §1

Hs578T = test: as above
Outline: as §1

BT-474 = test: as above
Outline: as §1

CAL-85-1 [7] = test: drug sensitivity score (DSS), CellTiter-Glo (DSS (AUC-based score)); higher = stronger drug effect (viability inhibition or cytotoxicity); extreme values may be limits of the assay
Outline: as §1

HCC1143 [8] = test: as above
Outline: as §1

BT-549 [9] = test: as above
Outline: as §1

MCF-10A [10] = test: as above
Outline: as §1

MDA-MB-231 [11] = test: as above
Outline: as §1

CAL-148 [12] = test: as above
Outline: as §1

Measured: drug sensitivity score

CCc1c(C(=O)C(N)=O)c2c(OCC(=O)O)cccc2n1Cc1ccccc1 [Varespladib]
0: all assays above

Source: the supplement of paper PMC4862054
